This note sets out measurements from patent publication US11279714B2, “Anti-infective compounds” (priority 2014, dated 2022).

The test system of test [1] is M. tuberculosis H37Rv expressing the green fluorescent protein (H37Rv-GFP). In words: microbe, parasite or virus in culture. Format: cell-based. The following applies: for MIC50: Mycobacterium tuberculosis, H37RV, 120 h, read-out: QUM (MIC50).
Test [2] has as its system Raw 264.7 cells infected with H37Rv-GFP. Description: microbe, parasite or virus in culture. Format: cell-based, M. tuberculosis. The following applies: for MIC50: Mycobacterium tuberculosis, H37RV, 120 h, read-out: QIM (MIC50).

Values after ≈ are worked out from the molar mass of the structure shown.

Turning to `CN(C)C(=O)C1CCN(c2nc3sc(C(=O)Nc4ccc(-c5nn(C)cc5Cl)cc4)cc3s2)CC1` [Compound 276], the values for the MIC50 in test [1] and in test [2] were more than 20 µM and less than 1 µM, respectively.
With `CN(C)C(=O)C1CCN(c2nc3sc(C(=O)Nc4ccc(-c5ccc(F)cn5)cc4)cc3s2)CC1` [Compound 268], the MIC50 in test [2] was less than 1 µM.
Turning to `Cc1nnc(-c2ccc(NC(=O)c3cc4sc(N5CCC(C(=O)N(C)C)CC5)nc4s3)cc2)o1` [Compound 184], the MIC50 in test [1] and in test [2] was more than 20 µM each time.
Regarding `COc1ccc(Cn2cc(F)c(-c3ccc(NC(=O)c4cc5sc(N6CCOCC6)nc5s4)cc3)n2)cc1` [Compound 158], the MIC50 in test [1] was 1 to 20 µM (≈ 0.55 to 11 µg/mL); in test [2], less than 1 µM.
For `O=C(Nc1ccc(F)cc1)c1cc2sc(N3CCC(C(=O)c4ccc(Cl)cc4)CC3)nc2s1` [Compound 241], the MIC50 in test [1] is more than 20 µM; in test [2] it was less than 1 µM.
As for `COc1ccc(CNc2nc3sc(C(=O)Nc4ccc5oc(C)nc5c4)cc3s2)cc1` [Compound 239], the MIC50 is 1 to 20 µM (≈ 0.451 to 9.01 µg/mL) in test [1] and less than 1 µM in test [2].
As for `O=C(Nc1ccc(F)cc1)c1cc2sc(OC3CCCCC3)nc2s1` [Compound 334], the MIC50 was 1 to 20 µM (≈ 0.376 to 7.53 µg/mL) in test [1] and less than 1 µM in test [2].
On to `Cc1nc2cc(NC(=O)c3cc4sc(N(C)CCN5CCC5)nc4s3)ccc2o1` [Compound 257], for which the MIC50 in test [2] is more than 20 µM.
Regarding `Cc1nc2cc(NC(=O)c3cc4sc(N5CC[C@H](C(=O)N(C)C)C5)nc4s3)ccc2o1` [Compound 215], the MIC50 in test [1] and in test [2] was less than 1 µM throughout.
In the case of `O=C(Nc1ccc(F)cc1)c1cc2sc(N3CCC(COc4ccc(Cl)cc4)CC3)nc2s1` [Compound 245], the MIC50 was 1 to 20 µM (≈ 0.502 to 10 µg/mL) in test [1] and less than 1 µM in test [2].
Turning to `O=C(Nc1ccc(-c2ccc(F)cn2)cc1)c1cc2sc(N3CCN4CCCC4C3)nc2s1` (centres unmarked) [Compound 324], the MIC50 in test [1] and in test [2] was less than 1 µM in each case.
In the case of `Cc1nc2cc(NC(=O)c3cc4sc(N5CCC(Nc6ccc(F)cc6)CC5)nc4s3)ccc2o1` [Compound 320], the MIC50 was 1 to 20 µM (≈ 0.508 to 10.2 µg/mL) in test [1] and less than 1 µM in test [2].
Take `Cc1nc2cc(NC(=O)c3cc4sc(N(C)CCOc5ccccc5)nc4s3)ccc2o1` [Compound 256]: in test [2], the MIC50 was less than 1 µM.
Regarding `CCCC(=O)Nc1nc2sc(C(=O)Nc3ccc4oc(C)nc4c3)cc2s1` [Compound 243], the figures for the MIC50 in test [1] and in test [2] were more than 20 µM and less than 1 µM, respectively.
`Cc1nc2cc(NC(=O)c3cc4sc(N5CCC(Oc6ccc(Cl)cc6)CC5)nc4s3)ccc2o1` [Compound 207]: the MIC50 was 1 to 20 µM (≈ 0.525 to 10.5 µg/mL) in test [1] and less than 1 µM in test [2].
With `CN(C)C(=O)C1CCN(c2nc3sc(C(=O)Nc4ccc(N5CCOCC5)cc4)cc3s2)CC1` [Compound 352], the MIC50 in test [1] is less than 1 µM.
With `O=C(Nc1ccc(N2CCC(Oc3ccc(F)cc3)CC2)cc1)c1cc2sc(NCCN3CCOCC3)nc2s1` [Compound 295], the MIC50 in test [1] and in test [2] was more than 20 µM in each case.
Turning to `CN(C)C(=O)CC1CCN(c2nc3sc(C(=O)Nc4ccc(F)cc4)cc3s2)CC1` [Compound 331], the MIC50 in test [1] and in test [2] was less than 1 µM each time.
For `O=C(Nc1ccc(F)cc1)c1cc2sc(N3CCC(C(O)c4ccc(Cl)cc4)CC3)nc2s1` (centres unmarked) [Compound 247], the MIC50 in test [1] is 1 to 20 µM (≈ 0.502 to 10 µg/mL); in test [2], less than 1 µM.
On to `COc1ccc(-c2ccc(NC(=O)c3cc4sc(N5CCC(C(=O)N(C)C)CC5)nc4s3)cc2)cn1` [Compound 213], for which the MIC50 in test [1] and in test [2] was less than 1 µM in each case.
In the case of `O=C(Nc1ccc(-c2ccc(F)nc2)cc1)c1cc2sc(N3CCNCC3)nc2s1` [Compound 289], the MIC50 in test [1] was 1 to 20 µM (≈ 0.44 to 8.79 µg/mL); in test [2] it was less than 1 µM.
Consider `CN(CCCO)c1nc2sc(C(=O)Nc3ccc(-c4ccc(F)nc4)cc3)cc2s1` [Compound 291], for which the MIC50 in test [1] and in test [2] was less than 1 µM throughout.
With `O=C(Nc1ccc(-c2ccc(F)cn2)cc1)c1cc2sc(N3CCNCC3)nc2s1` [Compound 315], the values for the MIC50 in test [1] and in test [2] were 1 to 20 µM (≈ 0.44 to 8.79 µg/mL) and less than 1 µM, respectively.
Taken in the same sequence, the figures for `C#CCOc1ccc(-c2ccc(NC(=O)c3cc4sc(N(C)CCOC)nc4s3)cc2)cc1` [Compound 358] were less than 1 µM and less than 1 µM.
For `COc1ccc(NC(=O)c2cc3sc(N4CCCCC4)nc3s2)cc1OC` [Compound 285], the MIC50 in test [2] is less than 1 µM.
`CN(C)c1nc2sc(C(=O)Nc3ccc4oc(-c5ccc(F)cc5)nc4c3)cc2s1` [Compound 210]: the MIC50 in test [1] and in test [2] was more than 20 µM each time.
Turning to `CN(C)C(=O)C1CCN(c2nc3sc(C(=O)Nc4ccc(-c5ccc(F)cc5)cn4)cc3s2)CC1.CS(=O)(=O)O` [Compound 283], the “QIM (MIC50, uM)” value in test [2] is reported as “+++ (+++ indicates <1 uM)”.
For the compound `CN(CCO)c1nc2sc(C(=O)Nc3ccc(-c4nn(C)cc4Cl)cc3)cc2s1` [Compound 279], the MIC50 in test [2] was in the range of 1 to 20 µM (≈ 0.448 to 8.96 µg/mL).
As to `Cc1nc2cc(NC(=O)c3cc4sc(N5CCC(Cc6ccc(Cl)cc6)CC5)nc4s3)ccc2o1` [Compound 236], the MIC50 in test [1] was more than 20 µM; in test [2] it was less than 1 µM.
For the compound `O=C(Nc1ccc(-c2ccc(F)cn2)cc1)c1cc2sc(NCCN3CCOCC3)nc2s1` [Compound 293], the MIC50 in test [2] is less than 1 µM.
For `Cc1nc2cc(NC(=O)c3cc4sc(NC5CCOCC5)nc4s3)ccc2o1` [Compound 299], the MIC50 in test [1] and in test [2] was less than 1 µM in each case.
Consider `COc1ccc(NC(=O)c2cc3sc(N4CCCCC4)nc3s2)c(OC)c1OC` [Compound 300], for which the MIC50 in test [2] was more than 20 µM.
Regarding `Cc1nc2cc(NC(=O)c3cc4sc(N5CCC(CC(=O)N(C)C)C5)nc4s3)ccc2o1` (centres unmarked) [Compound 308], the MIC50 in test [1] and in test [2] was less than 1 µM in each case.
`CC(C)(C)CC(=O)NC1CCN(c2nc3sc(C(=O)Nc4ccc(-c5ccc(F)cn5)cc4)cc3s2)CC1` [Compound 349]: the MIC50 in test [1] was more than 20 µM; in test [2], less than 1 µM.
Regarding `Cc1nc2cc(NC(=O)c3cc4sc(N(C)CC(O)C(F)(F)F)nc4s3)ccc2o1` (centres unmarked) [Compound 261], the MIC50 in test [1] and in test [2] was less than 1 µM in each case.
Regarding `O=C(Nc1ccc(-c2ccc(F)nc2)cc1)c1cc2sc(N3CCN4CCCC4C3)nc2s1` (centres unmarked) [Compound 338], the MIC50 in test [1] and in test [2] was less than 1 µM in each case.
For `CN(C)C(=O)CC1CCN(c2nc3sc(C(=O)Nc4ccc(-c5ccc(F)nc5)cc4)cc3s2)CC1` [Compound 351], the MIC50 in test [1] and in test [2] was less than 1 µM throughout.
Turning to `CN(CCO)c1nc2sc(C(=O)Nc3ccc4oc(Cc5ccc(F)cc5)nc4c3)cc2s1` [Compound 251], the values for the MIC50 in test [1] and in test [2] were 1 to 20 µM (≈ 0.483 to 9.65 µg/mL) and less than 1 µM, respectively.
Regarding `CS(=O)(=O)O.CS(=O)(=O)O.O=C(Nc1ccc(-c2ccc(F)cn2)cc1)c1cc2sc(NCCN3CCOCC3)nc2s1` [Compound 360], the MIC50 in test [1] was less than 1 µM. Also, the “QIM (MIC50, uM)” value in test [2] is on record as “+++ (+++ indicates <1 uM)”.
`Cc1nc2cc(NC(=O)c3cc4sc(NCCOc5ccc(Cl)cc5)nc4s3)ccc2o1` [Compound 290]: the results for the MIC50 in test [1] and in test [2] were more than 20 µM and less than 1 µM, respectively.
Take `Cc1nc2cc(NC(=O)c3cc4sc(N(C)CCOC(C)C)nc4s3)ccc2o1` [Compound 255]: the MIC50 in test [2] was more than 20 µM.
Consider `Cc1ccc(-c2ccc(NC(=O)c3cc4sc(N5CCC(C(=O)N(C)C)CC5)nc4s3)cc2)cn1.Cl` [Compound 208], for which the “QUM (MIC50, uM)” value in test [1] is “+++ (+++ indicates <1 uM)”. In test [2], the “QIM (MIC50, uM)” value is reported as “+++ (+++ indicates <1 uM)”.
With `COc1ccc(NC(=O)c2cc3sc(N4CCCCC4)nc3s2)c(OC)c1` [Compound 286], the MIC50 in test [2] was more than 20 µM.
As for `CN(C)C(=O)C1CCN(c2nc3sc(C(=O)Nc4ccc(-c5ccn(C)n5)cc4)cc3s2)CC1` [Compound 203], the MIC50 in test [1] and in test [2] was less than 1 µM in each case.
As to `COc1ccc(-c2ccc(NC(=O)c3cc4sc(NCCN5CCOCC5)nc4s3)cc2)cn1` [Compound 292], the results for the MIC50 in test [1] and in test [2] were 1 to 20 µM (≈ 0.496 to 9.91 µg/mL) and less than 1 µM, respectively.
For the compound `Cn1ccc(-c2ccc(NC(=O)c3cc4sc(N5CCNCC5)nc4s3)cc2)n1` [Compound 343], the MIC50 in test [1] is 1 to 20 µM (≈ 0.425 to 8.49 µg/mL); in test [2] it was less than 1 µM.
Turning to `CN(C)C(=O)C1CCN(c2nc3sc(C(=O)Nc4ccc(-c5ccc(F)cn5)cc4)cc3s2)CC1` [Compound 284], the MIC50 in test [1] was less than 1 µM.
In the case of `CN(C)C(=O)C1CCN(CCNc2nc3sc(C(=O)Nc4ccc(-c5ccc(F)cn5)cc4)cc3s2)CC1` [Compound 355], in test [1], the MIC50 lay in the range of 1 to 20 µM (≈ 0.553 to 11.1 µg/mL).
For `Cc1nc2cc(NC(=O)c3cc4sc(NC5CCN(Cc6ccc(F)cc6)CC5)nc4s3)ccc2o1` [Compound 357], the MIC50 in test [1] was 1 to 20 µM (≈ 0.522 to 10.4 µg/mL).
With `O=C(Nc1ccc(F)cc1)c1cc2sc(N3CCN4CCCC4C3)nc2s1` (centres unmarked) [Compound 322], the MIC50 in test [1] was 1 to 20 µM (≈ 0.403 to 8.05 µg/mL).
Consider `CN(CCO)c1nc2sc(C(=O)Nc3ccc(-c4n[nH]cc4Cl)cc3)cc2s1` [Compound 281], for which the MIC50 in test [2] was 1 to 20 µM (≈ 0.434 to 8.68 µg/mL).
Regarding `CN(C)C(=O)C1CCN(c2nc3sc(C(=O)Nc4ccc(CN5CCOCC5)cc4)cc3s2)CC1` [Compound 353], in test [1], the MIC50 lay in the range of 1 to 20 µM (≈ 0.514 to 10.3 µg/mL).
With `Cc1nc2cc(NC(=O)c3cc4sc(N(C)CCC(=O)N(C)C)nc4s3)ccc2o1` [Compound 264], the MIC50 in test [2] is 1 to 20 µM (≈ 0.444 to 8.87 µg/mL).
`N#Cc1ccc(NC(=O)c2cc3sc(NCCN4CCOCC4)nc3s2)cc1` [Compound 303]: the MIC50 in test [2] was more than 20 µM.
Consider `CN(C)C(=O)C1CCN(c2nc3sc(C(=O)Nc4ccc(-c5n[nH]cc5Cl)cc4)cc3s2)CC1` [Compound 280], for which the MIC50 in test [2] was more than 20 µM.
With `CN1CCCC(Nc2nc3sc(C(=O)Nc4ccc(-c5ccc(F)nc5)cc4)cc3s2)C1` (centres unmarked) [Compound 354], the MIC50 in test [1] lay in the range of 1 to 20 µM (≈ 0.468 to 9.35 µg/mL).
Same read-out and setting: the result for `Cc1nc2cc(NC(=O)c3cc4sc(NC5CCN(C)CC5)nc4s3)ccc2o1` [Compound 356] reads more than 20 µM.
In the case of `CN(C)C(=O)C1CCN(c2nc3sc(C(=O)Nc4ccc(-c5ccc(F)cc5)nc4)cc3s2)CC1.Cl` [Compound 259], the “QIM (MIC50, uM)” value in test [2] is on record as “+++ (+++ indicates <1 uM)”.
As to `Cc1nc2cc(NC(=O)c3cc4sc(N(C)CCN(C)C)nc4s3)ccc2o1` [Compound 253], in test [2], the MIC50 is 1 to 20 µM (≈ 0.416 to 8.31 µg/mL).
Turning to `COCCCN(C)c1nc2sc(C(=O)Nc3ccc4oc(C)nc4c3)cc2s1` [Compound 254], in test [2], the MIC50 is less than 1 µM.
